We go through five molecules from patent US20070219239A1, “Nitrogen-containing heterocycle derivatives, pharmaceutical compositions, and methods of use thereof as antiviral agents” (priority 2006, published 2007).

The assay deals with vaccinia virus. Kind of assay: microbe, parasite or virus in culture. Type of assay: cell-based. As to conditions: Orthopoxvirus vaccinia, BSC-40, in Chlorocebus sabaeus, read-out: EC50 (inhibition of viral replication).

With `C[C@@H](NC(=O)c1cc(NC(=O)C(C)(C)C)cc(-c2c[nH]c(-c3cc4ccccc4cn3)n2)c1)c1ccc(F)cc1` [Example 15], the EC50 (as a rule, the concentration that produces a half-maximal response) was at most 0.5 µM. Turning to `C[C@@H](NC(=O)c1cccc(-c2c[nH]c(-c3cc4ccccc4cn3)n2)c1)c1ccc(F)cc1` [Example 6, N-[(1R)-1-(4-fluorophenyl)ethyl]-3-(2-isoquinoline-3-yl-1H-imidazol-4-yl)benzamide], the 50% effective concentration (EC50) is at most 0.5 µM. For `C[C@@H](NC(=O)c1cc(NC(=O)C(C)(C)F)cc(-c2c[nH]c(-c3cc4ccccc4cn3)n2)c1)c1ccc(F)cc1` [Example 17, N-[(1R)-1-(4-fluorophenyl)ethyl]-3-(2-isoquinoline-3-yl-1H-imidazol-4-yl)-5-(2-fluoroisobutyrylamino)benzamide] the value was at most 0.5 µM; for `CC(C)C(=O)Nc1cc(C(=O)N[C@H](C)c2ccc(F)cc2)cc(-c2c[nH]c(-c3cc4ccccc4cn3)n2)c1` [Example 1], at most 0.5 µM; for `C[C@@H](NC(=O)c1cc(Cl)cc(-c2c[nH]c(-c3cc4ccccc4cn3)n2)c1)c1ccc(F)cc1` [Example 5, N-[(1R)-1-(4-fluorophenyl)ethyl]-3-(2-isoquinoline-3-yl-1H-imidazol-4-yl)-5-chlorobenzamide], at most 0.5 µM.
